Assays:
Pasteurella multocida = test: Treatment of Pasteurella infections in chicks (Table V); format: in vivo, one-day-old chicks; details: Pasteurella multocida, sc, 4 h; 30 mg/kg by subcutaneous injection one and four hours post challenge; read-out: Deaths in Treated Chicks/Number Treated (converted)
How it was run: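 One-day-old chicks challenged subcutaneously with avian P. multocida (0.1 ml of 10^-3 dilution of 20-hour tryptose broth culture). Esters given at 30 mg/kg subcutaneously at 1 and 4 hours post challenge. Untreated infected controls, ten per group.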

[1] = test system: Pasteurella multocida 68C; test: MIC, broth-dilution microtiter test (Table III); format: cell-based; design: unit not given here
Protocol: (§1) The MIC's in Table II were determined by standard agar-dilution assays. The MIC's in Table III were obtained using a conventional broth-dilution microtiter test.

[2] = test system: Pasteurella haemolytica 41D; test: MIC, broth-dilution microtiter test (Table III); format: cell-based; design: unit not given here
Protocol: as §1

Staphylococcus aureus = test: MIC, broth-dilution microtiter test (Table III); format: cell-based; design: unit not given here
Protocol: as §1

[3] = test system: Pasteurella multocida 17E; test: MIC, broth-dilution microtiter test (Table III); format: cell-based; design: unit not given here; details: bovine isolate
Protocol: as §1

[4] = test system: Pasteurella multocida 40G; test: MIC, broth-dilution microtiter test (Table III); format: cell-based; design: unit not given here
Protocol: as §1

Streptococcus sp. 80 = test: MIC, broth-dilution microtiter test (Table III); format: cell-based; design: unit not given here
Protocol: as §1

[5] = test system: Pasteurella haemolytica 22C; test: MIC, broth-dilution microtiter test (Table III); format: cell-based; design: unit not given here
Protocol: as §1

[6] = test system: Pasteurella multocida 22A; test: MIC, broth-dilution microtiter test (Table III); format: cell-based; design: unit not given here
Protocol: as §1

Mycoplasma synoviae = test: MIC, broth-dilution microtiter test (Table III); format: cell-based; design: unit not given here
Protocol: as §1

[7] = test system: Pasteurella haemolytica 23C; test: MIC, broth-dilution microtiter test (Table III); format: cell-based; design: unit not given here
Protocol: as §1

Mycoplasma hyorhinis = test: MIC, broth-dilution microtiter test (Table III); format: cell-based; design: unit not given here
Protocol: as §1

[8] = test system: Pasteurella multocida 60A; test: MIC, broth-dilution microtiter test (Table III); format: cell-based; design: unit not given here; details: avian isolate
Protocol: as §1

Mycoplasma gallisepticum = test: MIC, broth-dilution microtiter test (Table III); format: cell-based; design: unit not given here
Protocol: as §1

[9] = test system: Streptococcus pneumoniae Park I; test: MIC, standard agar-dilution assay (Table II); format: cell-based; design: unit not given here
Protocol: as §1

[10] = test system: Staphylococcus epidermidis EPI2; test: MIC, standard agar-dilution assay (Table II); format: cell-based; design: unit not given here
Protocol: as §1

[11] = test system: Streptococcus Group D X66; test: MIC, standard agar-dilution assay (Table II); format: cell-based; design: unit not given here
Protocol: as §1

[12] = test system: Streptococcus pyogenes C203; test: MIC, standard agar-dilution assay (Table II); format: cell-based; design: unit not given here
Protocol: as §1

[13] = test system: Staphylococcus aureus S13E; test: MIC, standard agar-dilution assay (Table II); format: cell-based; design: unit not given here
Protocol: as §1

[14] = test system: Streptococcus Group D 9960; test: MIC, standard agar-dilution assay (Table II); format: cell-based; design: unit not given here
Protocol: as §1

[15] = test system: Haemophilus influenzae Holt; test: MIC, standard agar-dilution assay (Table II); format: cell-based; design: unit not given here; details: ampicillin-sensitive strain
Protocol: as §1

[16] = test system: Staphylococcus aureus X400; test: MIC, standard agar-dilution assay (Table II); format: cell-based; design: unit not given here; details: Staphylococcus aureus X400, methicillin-resistant strain
Protocol: as §1

[17] = test system: Staphylococcus aureus V41; test: MIC, standard agar-dilution assay (Table II); format: cell-based; design: unit not given here; details: Staphylococcus aureus V41, penicillin-resistant strain
Protocol: as §1

[18] = test system: Staphylococcus epidermidis EPI1; test: MIC, standard agar-dilution assay (Table II); format: cell-based; design: unit not given here
Protocol: as §1

[19] = test system: Haemophilus influenzae R252; test: MIC, standard agar-dilution assay (Table II); format: cell-based; design: unit not given here; details: Haemophilus influenzae R252, ampicillin-resistant strain
Protocol: as §1

[20] = test system: Staphylococcus aureus X1.1; test: MIC, standard agar-dilution assay (Table II); format: cell-based; design: unit not given here
Protocol: as §1

| SMILES | mortality at 30 mg/kg (Pasteurella multocida) | minimal inhibitory concentration (MIC) [1] | minimal inhibitory concentration (MIC) [2] | minimal inhibitory concentration (MIC) (Staphylococcus aureus) | minimal inhibitory concentration (MIC) [3] | minimal inhibitory concentration (MIC) [4] | minimal inhibitory concentration (MIC) (Streptococcus sp. 80) | minimal inhibitory concentration (MIC) [5] | minimal inhibitory concentration (MIC) [6] | minimal inhibitory concentration (MIC) (Mycoplasma synoviae) | minimal inhibitory concentration (MIC) [7] | minimal inhibitory concentration (MIC) (Mycoplasma hyorhinis) | minimal inhibitory concentration (MIC) [8] | minimal inhibitory concentration (MIC) (Mycoplasma gallisepticum) | minimal inhibitory concentration (MIC) [9] | minimal inhibitory concentration (MIC) [10] | minimal inhibitory concentration (MIC) [11] | minimal inhibitory concentration (MIC) [12] | minimal inhibitory concentration (MIC) [13] | minimal inhibitory concentration (MIC) [14] | further results |
| --- | --- | --- | --- | --- | --- | --- | --- | --- | --- | --- | --- | --- | --- | --- | --- | --- | --- | --- | --- | --- | --- |
| CCC1OC(=O)CC(O)C(C)C(OC2OC(C)C(O)C(N(C)C)C2O)C(CC=O)CC(C)C(=O)C=CC(C)=CC1COS(=O)(=O)c1ccc(NC(C)=O)cc1 (stereo not drawn) [Compound 56, 23-O-(p-Acetamidobenzenesulfonyl)-OMT] | 100% | 3.12 | 6.25 | 0.78 | 3.12 | 6.25 | 0.195 | 6.25 | 6.25 | 0.78 | 6.25 | 12.5 | 3.12 | 0.39 | 0.06 | 2 | 1 | 0.125 | 1 | 1 | minimal inhibitory concentration (MIC) [15]: 2; minimal inhibitory concentration (MIC) [16]: 2; minimal inhibitory concentration (MIC) [17]: 2; minimal inhibitory concentration (MIC) [18]: 0.5; minimal inhibitory concentration (MIC) [19]: 2; minimal inhibitory concentration (MIC) [20]: 1 |
| CCC1OC(=O)CC(O)C(C)C(OC2OC(C)C(OC(C)=O)C(N(C)C)C2OC(C)=O)C(CC=O)CC(C)C(=O)C=CC(C)=CC1COS(=O)(=O)c1ccc(C)cc1 (stereo not drawn) [Compound 55] | 100% | 3.12 | 6.25 | 0.195 | 3.12 | 6.25 | 0.05 | 3.12 | 6.25 | 0.05 | 3.12 | 0.78 | 3.12 | 0.05 | 0.03 | 0.25 | 0.125 | 0.06 | 0.25 | 0.125 | minimal inhibitory concentration (MIC) [15]: 1; minimal inhibitory concentration (MIC) [16]: 0.25; minimal inhibitory concentration (MIC) [17]: 0.125; minimal inhibitory concentration (MIC) [18]: 0.25; minimal inhibitory concentration (MIC) [19]: 1; minimal inhibitory concentration (MIC) [20]: 0.125 |
| CCC(=O)OCC1C=C(C)C=CC(=O)C(C)CC(CC=O)C(OC2OC(C)C(O)C(N(C)C)C2OC(=O)CC)C(C)C(O)CC(=O)OC1CC (stereo not drawn) [Compound 10, 2',23-Di-O-Propionyl-OMT] | 10% | 1.56 | 6.25 | 0.39 | 1.56 | 1.56 | 0.195 | 6.25 | 6.25 | 0.097 | 6.25 | 0.78 | 1.56 | 0.097 | 0.125 | 0.25 | 0.5 | 0.25 | 0.5 | 0.5 | minimal inhibitory concentration (MIC) [15]: 2; minimal inhibitory concentration (MIC) [16]: 0.5; minimal inhibitory concentration (MIC) [17]: 0.5; minimal inhibitory concentration (MIC) [18]: 0.25; minimal inhibitory concentration (MIC) [19]: 8; minimal inhibitory concentration (MIC) [20]: 0.25 |
| CCC1OC(=O)CC(O)C(C)C(OC2OC(C)C(O)C(N(C)C)C2OC(C)=O)C(CC=O)CC(C)C(=O)C=CC(C)=CC1COC(=O)OC (stereo not drawn) [Compound 73] | 0% | 3.12 | 3.12 | 0.78 | 6.25 | 6.25 | 0.39 | 6.25 | > 50 | 0.097 | 6.25 | 0.39 | 6.25 | 0.097 | 0.03 | 0.25 | 0.25 | 0.25 | 0.25 | 0.25 | minimal inhibitory concentration (MIC) [15]: 1; minimal inhibitory concentration (MIC) [16]: 0.25; minimal inhibitory concentration (MIC) [17]: 0.25; minimal inhibitory concentration (MIC) [18]: 0.25; minimal inhibitory concentration (MIC) [19]: 2; minimal inhibitory concentration (MIC) [20]: 0.25 |
| CCC1OC(=O)CC(O)C(C)C(OC2OC(C)C(O)C(N(C)C)C2OC(C)=O)C(CC=O)CC(C)C(=O)C=CC(C)=CC1COC(=O)NCc1ccccc1 (stereo not drawn) [Compound 75] | 100% | 3.12 | 6.25 | 0.78 | 6.25 | 12.5 | 0.39 | 6.25 | > 50 | < 0.048 | 3.12 | 0.78 | 6.25 | 0.048 | 0.03 | 0.125 | 0.25 | 0.125 | 0.125 | 0.125 | minimal inhibitory concentration (MIC) [15]: 0.5; minimal inhibitory concentration (MIC) [16]: 0.25; minimal inhibitory concentration (MIC) [17]: 0.25; minimal inhibitory concentration (MIC) [18]: 0.125; minimal inhibitory concentration (MIC) [19]: 1; minimal inhibitory concentration (MIC) [20]: 0.125 |
| CCC1OC(=O)CC(O)C(C)C(OC2OC(C)C(O)C(N(C)C)C2OC(C)=O)C(CC=O)CC(C)C(=O)C=CC(C)=CC1COC(=O)COc1ccccc1 (stereo not drawn) [Compound 35] | 10% | 1.56 | 1.56 | 0.39 | 1.56 | 3.12 | 0.097 | 3.12 | 6.25 | 0.097 | 3.12 | 3.12 | 1.56 | < 0.05 | 0.03 | 0.125 | 0.125 | 0.06 | 0.125 | 0.125 | minimal inhibitory concentration (MIC) [15]: 1; minimal inhibitory concentration (MIC) [16]: 0.125; minimal inhibitory concentration (MIC) [17]: 0.125; minimal inhibitory concentration (MIC) [18]: 0.125; minimal inhibitory concentration (MIC) [19]: 1; minimal inhibitory concentration (MIC) [20]: 0.125 |
